Measurements from patent US20240317752A1, “6-SUBSTITUTED-9H-PURINE DERIVATIVES AND RELATED USES” (Black Diamond Therapeutics, Inc., priority 2021, published 2024).

Target: T1, BaF3 BRAF-KIAA1549 fusion cells (Homo sapiens, UniProt P15056)
T1 construct: The BRAF-KIAA1549 fusion mutant was subcloned into pMXs-IRES-Blasticidin (RTV-016, Cell Biolabs, San Diego, CA); fused on or other part: Q9HCM3 (UPF0606 protein KIAA1549)
Assay: BaF3 BRAF-KIAA1549 fusion cell proliferation assay (CellTiterGlo)
Type: cell-based
Conditions: 96 hours incubation, potency code
Description: Retroviral Production: The BRAF-KIAA1549 fusion mutant was subcloned into pMXs-IRES-Blasticidin (RTV-016, Cell Biolabs, San Diego, CA). Retrovirus was produced by transfection of HEK 293T cells with the retroviral BRAF mutant expression vector pMXs-IRES-Blasticidin (RTV-016, Cell Biolabs), pCMV-Gag-Pol vector and pCMV-VSV-G-Envelope vector. Briefly, HEK 293T cells were plated in Poly-D-lysine coated 6-well plate (2.5×10^5 cells per well) and incubated overnight. The next day, retroviral plasmids (1 μg of BRAF-KIAA fusion mutant, 0.32 μg of pCMV-Gag-Pol and 0.165 μg pCMV-VSV-G) were mixed in 300 μL of Optimem (31985, Life Technologies). The mixture was incubated at room temperature for 5 minutes and then added to Optimem containing transfection reagent Lipofectamine (11668, Invitrogen) and incubated for 20 minutes. The mixture was then added dropwise to HEK 293T cells. The next day the medium was replaced with fresh culture medium and retrovirus was harvested at 24 hours.
Generation of BRAF-KIAA1549 fusion stable cell line: BaF3 cells were plated in V-bottom 96 well plate (COSTAR #3894) in 80 μL of RPMI/10% FBS and 0.01 ng/ml mouse IL-3; supplemented with 8 μg/mL polybrene (4×10^4 cells/well). Cells were transduced with 20 μL of BRAF-KIAA1549 fusion viral supernatant by centrifuging for 30 minutes at 1000 rpm. Cells were placed in a 37° C. incubator overnight. Next day 100 μL of RPMI/10% FBS and 0.01 ng/ml mouse IL-3 was added. After 24 hours, 100 μL of cells were transferred to a 24 well plate containing 900 μL of RPMI/10% FBS and 15 μg/mL Blasticidin. Contents of the 24 well plate were sampled for cell viability via CellTiterGlo (Promega) over a 2-week period.
Assay for cell proliferation: BaF3 BRAF-KIAA1549 fusion cells were resuspended at 1.5×10^5c/mL in RPMI containing 10% Heat Inactivated FBS, 1% L-glutamine and dispensed in duplicate ([…]) into 384 well plates. To determine the effect of compound on cell proliferation, BaF3 BRAF-KIAA1549 fusion cells were incubated for 96 hours in the presence of vehicle control (DMSO) or compound at varying concentrations. Inhibition of cell growth was determined by luminescent quantification (Envision by Perkin Elmer) of intracellular ATP content using CellTiterGlo (Promega), according to the protocol provided by the manufacturer. To determine the IC50 values, the vehicle-treated cells were normalized as viable cells and analyzed using the CDD Vault, Collaborative Drug Discovery, Burlingame, CA (the Levenberg-Marquardt algorithm; Levenberg, K., […]; Marquardt, D., 1963).
Tables A1 and A2 assign each compound a code for potency in the BaF3 BRAF-KIAA1549 fusion cell proliferation assay: A, B, C, or D. According to the code, A represents an IC50 value <20 nM; B represents an IC50 value ≥20 nM and <100 nM; C represents an IC50 value ≥100 nM and <500 nM; and D represents an IC50 value ≥500 nM.

T1 sequence (P15056 whole entry, change not shown, the tested form may be a part): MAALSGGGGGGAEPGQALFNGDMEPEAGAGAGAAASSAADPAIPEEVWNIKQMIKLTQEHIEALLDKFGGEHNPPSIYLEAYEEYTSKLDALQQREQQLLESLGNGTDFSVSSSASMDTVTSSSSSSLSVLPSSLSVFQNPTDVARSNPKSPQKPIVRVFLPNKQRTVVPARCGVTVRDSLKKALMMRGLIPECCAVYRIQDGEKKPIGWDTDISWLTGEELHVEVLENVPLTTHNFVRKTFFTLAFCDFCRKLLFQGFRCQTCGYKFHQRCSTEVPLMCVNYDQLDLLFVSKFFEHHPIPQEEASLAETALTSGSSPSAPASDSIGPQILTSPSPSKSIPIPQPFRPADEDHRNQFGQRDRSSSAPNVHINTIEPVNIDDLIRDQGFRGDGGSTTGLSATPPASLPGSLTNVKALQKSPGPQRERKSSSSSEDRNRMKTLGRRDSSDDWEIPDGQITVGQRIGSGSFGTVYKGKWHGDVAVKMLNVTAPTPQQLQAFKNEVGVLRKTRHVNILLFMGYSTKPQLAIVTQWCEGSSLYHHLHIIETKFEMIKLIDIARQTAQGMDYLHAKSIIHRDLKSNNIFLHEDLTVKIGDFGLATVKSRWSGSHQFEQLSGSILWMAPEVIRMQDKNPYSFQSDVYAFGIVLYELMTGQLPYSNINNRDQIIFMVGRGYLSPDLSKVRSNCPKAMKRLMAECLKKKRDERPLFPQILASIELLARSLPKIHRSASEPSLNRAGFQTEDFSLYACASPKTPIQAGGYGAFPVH

Structure (SMILES) | GI50 [nM]
Cc1ccc(NC(=O)CC2CCCCOC2)cc1Nc1ncccc1-c1ncnc2[nH]cnc12 (stereo not shown) [IA-99, N-(3-(3-(9H-purin-6-yl)pyridin-2-ylamino)-4-methylphenyl)-2-(oxepan-3-yl)acetamide] | 20 to 100
CCc1cnc(C(=O)Nc2ccc(C)c(Nc3ncccc3-c3ncnc4[nH]cnc34)c2)cc1C(F)(F)F [IA-92, N-(3-(3-(9H-purin-6-yl)pyridin-2-ylamino)-4-methylphenyl)-5-ethyl-4-(trifluoromethyl)picolinamide] | 20 to 100
Cc1ccc(NC(=O)CC2CCNCCO2)cc1Nc1ncccc1-c1ncnc2[nH]cnc12 (stereo not shown) [Compound I-83, N-(3-((3-(9H-purin-6-yl)pyridin-2-yl)amino)-4-methylphenyl)-2-(1,4-oxazepan-7-yl)acetamide] | ≥ 500
Cc1ccc(C(=O)Nc2ccc(C)c(Nc3ncccc3-c3ncnc4[nH]cnc34)c2)cc1 [Compound I-27, N-(3-((3-(9H-purin-6-yl)pyridin-2-yl)amino)-4-methylphenyl)-4-methylbenzamide] | 20 to 100
Cc1cc(C(F)(F)F)cc(C(=O)Nc2ccc(C)c(Nc3ncccc3-c3ncnc4[nH]cnc34)c2)n1 [IA-93, N-(3-((3-(9H-purin-6-yl)pyridin-2-yl)amino)-4-methylphenyl)-6-methyl-4-(trifluoromethyl)picolinamide] | 20 to 100
Cc1ccc(NC(=O)c2cc(C(F)(F)F)ccn2)cc1Nc1nccc(F)c1-c1ncnc2[nH]cnc12 [IA-117, N-(3-(4-fluoro-3-(9H-purin-6-yl)pyridin-2-ylamino)-4-methylphenyl)-4-(trifluoromethyl)picolinamide] | 100 to 500
Cc1ccc(NC(=O)C23CC(Cl)(C2)C3)cc1Nc1ncccc1-c1ncnc2[nH]cnc12 [Compound I-28, N-(3-(3-(9H-purin-6-yl)pyridin-2-ylamino)-4-methylphenyl)-3-chlorobicyclo[1.1.1]pentane-1-carboxamide] | ≥ 500
Cc1ccc(NC(=O)c2ncc(C)c(C(F)(F)F)c2F)cc1Nc1ncccc1-c1ncnc2[nH]cnc12 [IA-91, N-(3-(3-(9H-purin-6-yl)pyridin-2-ylamino)-4-methylphenyl)-3-fluoro-5-methyl-4-(trifluoromethyl)picolinamide] | 20 to 100
Cc1ncc(NC(=O)c2ccc(Cl)c(C#N)c2)cc1Nc1ncccc1-c1ncnc2[nH]cnc12 [Compound I-40, N-(5-((3-(9H-purin-6-yl)pyridin-2-yl)amino)-6-methylpyridin-3-yl)-4-chloro-3-cyanobenzamide] | ≥ 500
Cc1ccc(NC(=O)c2cc(C(F)(F)F)ccn2)cc1Nc1ncccc1-c1nc(F)nc2[nH]cnc12 [IA-151, N-(3-(3-(2-fluoro-9H-purin-6-yl)pyridin-2-ylamino)-4-methylphenyl)-4-(trifluoromethyl)picolinamide] | ≥ 500
Cc1ccc(NC(=O)CC2CCN(C)CCO2)cc1Nc1ncccc1-c1ncnc2[nH]cnc12 (stereo not shown) [IA-136, N-(3-(3-(9H-purin-6-yl)pyridin-2-ylamino)-4-methylphenyl)-2-(4-methyl-1,4-oxazepan-7-yl)acetamide] | ≥ 500
Cc1nc(-c2cccnc2Nc2cc(NC(=O)c3cc(C(F)(F)F)ccn3)ccc2C)c2nc[nH]c2n1 [IA-150, N-(4-methyl-3-((3-(2-methyl-9H-purin-6-yl)pyridin-2-yl)amino)phenyl)-4-(trifluoromethyl)picolinamide] | ≥ 500
Cc1ncc(NC(=O)c2ccnc(C3(F)CC3)c2)cc1Nc1ncccc1-c1ncnc2[nH]cnc12 [Compound I-61, N-(5-((3-(9H-purin-6-yl)pyridin-2-yl)amino)-6-methylpyridin-3-yl)-2-(1-fluorocyclopropyl)isonicotinamide] | 20 to 100
Cc1ccc(NC(=O)c2ccc(C)c(C#N)n2)cc1Nc1ncccc1-c1ncnc2[nH]cnc12 [Compound I-51, N-(3-(3-(9H-purin-6-yl)pyridin-2-ylamino)-4-methylphenyl)-6-cyano-5-methylpicolinamide] | ≥ 500
Cc1ccc(NC(=O)CC2CCCN(C)CC2)cc1Nc1ncccc1-c1ncnc2[nH]cnc12 (stereo not shown) [IA-132, N-(3-(3-(9H-purin-6-yl)pyridin-2-ylamino)-4-methylphenyl)-2-(1-methylazepan-4-yl)acetamide] | ≥ 500

More lines, now with the values ahead:

GI50 [nM] | Structure (SMILES)
20 to 100 | Cc1ccc(C(=O)Nc2ccnc(C(F)(F)F)c2)cc1Nc1ncccc1-c1ncnc2[nH]cnc12 [Compound I-35, 3-((3-(9H-purin-6-yl)pyridin-2-yl)amino)-4-methyl-N-(2-(trifluoromethyl)pyridin-4-yl)benzamide]
< 20 | Cc1ccc(NC(=O)CN2CCC[C@H](C(F)(F)F)C2)cc1Nc1ncccc1-c1ncnc2[nH]cnc12 [IA-103, (S)—N-(3-(3-(9H-purin-6-yl)pyridin-2-ylamino)-4-methylphenyl)-2-(3-(trifluoromethyl)piperidin-1-yl)acetamide]
< 20 | C#Cc1cc(C(=O)Nc2ccc(C)c(Nc3ncccc3-c3ncnc4[nH]cnc34)c2)ccc1Cl [Compound I-36, N-(3-((3-(9H-purin-6-yl)pyridin-2-yl)amino)-4-methylphenyl)-4-chloro-3-ethynylbenzamide]
< 20 | Cc1ccc(NC(=O)c2cccc(C(F)(F)F)c2)cc1Nc1ncccc1-c1ncnc2[nH]cnc12 [IA-145, N-(3-((3-(9H-purin-6-yl)pyridin-2-yl)amino)-4-methylphenyl)-3-(trifluoromethyl)benzamide]
< 20 | C#Cc1ccc(C(=O)Nc2ccc(C)c(Nc3ncccc3-c3ncnc4[nH]cnc34)c2)cc1 [Compound I-31, N-(3-((3-(9H-purin-6-yl)pyridin-2-yl)amino)-4-methylphenyl)-4-ethynylbenzamide]
< 20 | Cc1ccc(NC(=O)c2cc(C(F)(F)F)c(OC3COC3)cn2)cc1Nc1ncccc1-c1ncnc2[nH]cnc12 [IA-95, N-(3-(3-(9H-purin-6-yl)pyridin-2-ylamino)-4-methylphenyl)-5-(oxetan-3-yloxy)-4-(trifluoromethyl)picolinamide]
< 20 | Cc1ccc(NC(=O)c2nccc(C(F)(F)F)c2F)cc1Nc1ncccc1-c1ncnc2[nH]cnc12 [IA-116, N-(3-((3-(9H-purin-6-yl)pyridin-2-yl)amino)-4-methylphenyl)-3-fluoro-4-(trifluoromethyl)picolinamide]
< 20 | Cc1ccc(NC(=O)c2cccc(N(C)C)c2)cc1Nc1ncccc1-c1ncnc2[nH]cnc12 [Compound I-80, N-(3-((3-(9H-purin-6-yl)pyridin-2-yl)amino)-4-methylphenyl)-3-(dimethylamino)benzamide]
< 20 | Cc1ccc(NC(=O)c2ccnc(C3(C#N)CCC3)c2)cc1Nc1ncccc1-c1ncnc2[nH]cnc12 [Compound I-66, N-(3-((3-(9H-purin-6-yl)pyridin-2-yl)amino)-4-methylphenyl)-2-(1-cyanocyclobutyl)isonicotinamide]
< 20 | Cc1ccc(NC(=O)C[C@H]2CCC[C@@H](C(F)(F)F)C2)cc1Nc1ncccc1-c1ncnc2[nH]cnc12 (single isomer, unassigned) [IA-137]
< 20 | Cc1ccc(NC(=O)c2cc(C(F)(F)F)c(F)cn2)cc1Nc1ncccc1-c1ncnc2[nH]cnc12 [IA-115, N-(3-((3-(9H-purin-6-yl)pyridin-2-yl)amino)-4-methylphenyl)-5-fluoro-4-(trifluoromethyl)picolinamide]
< 20 | Cc1ccc(NC(=O)c2nccc(C(F)(F)F)c2C)cc1Nc1ncccc1-c1ncnc2[nH]cnc12 [Compound I-65, N-(3-((3-(9H-purin-6-yl)pyridin-2-yl)amino)-4-methylphenyl)-3-methyl-4-(trifluoromethyl)picolinamide]
< 20 | Cc1ccc(NC(=O)c2cc(C(F)(F)F)c(C)cn2)cc1Nc1ncccc1-c1ncnc2[nH]cnc12 [IA-114, N-(3-((3-(9H-purin-6-yl)pyridin-2-yl)amino)-4-methylphenyl)-5-methyl-4-(trifluoromethyl)picolinamide]
